Results as given in patent US8354405B2, “6-cycloamino-3-(pyrid-4-yl)imidazo[1,2-b]pyridazine derivatives, preparation thereof and therapeutic use thereof” (Sanofi, priority 2007, dated 2013).

Tests used:
[1] = target: casein kinase 1 epsilon (CK1 epsilon) (Homo sapiens, UniProt P49674); experiment: Filter-plate assay of ATP-33P for CK1 epsilon inhibitors (casein phosphorylation); type: biochemical; details: inhibition of phosphorylation of casein, ATP-33P filter-plate, ATP 10 μM
Procedure: The capacity of the compounds of the invention to inhibit the phosphorylation of casein by casein kinases 1 epsilon and delta may be evaluated according to the procedure described in document US 2005/0 131 012.
Filter-Plate Assay of ATP-^33P for the Screening of CK1 Epsilon Inhibitors:
The effect of the compounds on inhibition of the phosphorylation of casein by the enzyme casein kinase 1 epsilon (CK1 epsilon) is measured, using a casein assay via filtration of ATP-^33P in vitro.
Casein kinase 1 epsilon (0.58 mg/ml) is obtained via fermentation and purification processes performed according to methods that are well known to those skilled in the art, or may also be obtained from Invitrogen Corporation™ (human CK1 epsilon).
The compounds are tested at five different concentrations so as to generate IC50 values, i.e. the concentration at which a compound is capable of inhibiting the enzymatic activity by 50%, or alternatively the percentage of inhibition at a concentration of 10 micromolar.
“U”-bottomed Falcon plates are prepared by placing 5 μL of solutions of the compounds according to the invention at concentrations of 10, 1, 0.1, 0.01 or 0.001 μM in different wells. The solutions of the compounds according to the invention at these various concentrations are prepared by diluting in a test buffer (Tris 50 mM pH 7.5, MgCl2 […], DTT 2 mM and EGTA 1 mM) a stock solution in DMSO at a concentration of 10 mM. Next, 5 μL of dephosphorylated casein are added to a final concentration of 0.2 μg/μL, 20 μL of CK1 epsilon to a final concentration of 3 ng/μL, and 20 μL of ATP-^33P to a final concentration of 0.02 μCi/μL mixed with cold ATP (10 μM final—approximately 2×10^6 CPM per well). The final total test volume per well is equal to 50 μL.
The “U”-bottomed Falcon® test plate mentioned above is vortexed, and then incubated at room temperature for 2 hours. After 2 hours the reaction is stopped by adding an ice-cold solution of 65 μL of cold ATP (2 mM) prepared in test buffer.
100 μL of the reaction mixture are then transferred from the “U”-bottomed Falcon® plate into Millipore® MAPH filter plates, preimpregnated with 25 μL of ice-cold 100% TCA.
The Millipore MAPH filter plates are agitated gently and are left to stand at room temperature for at least 30 minutes to precipitate the proteins.
After 30 minutes, the filter plates are sequentially washed and filtered with 2×150 μL of 20% TCA, 2×150 μL of 10% TCA and 2×150 μL of 5% TCA (6 washes in total per plate/900 μL per well).
The plates are left to dry overnight at room temperature. Next, 40 μL of Microscint-20 Packard® scintillation liquid are added per well and the plates are closed in a leak tight manner. The radiation emitted by each well is then measured for 2 minutes in a TopCount NXT Packard® scintillation counter, in which the values of CPM/well are measured.
The percentage inhibition of the capacity of the enzyme to phosphorylate the substrate (casein) is determined for each concentration of test compound. These inhibition data expressed as percentages are used to calculate the IC50 value for each compound compared with the controls.
The kinetic studies determined the KM value for ATP as being 21 μM in this test system.

human CK1 delta = target: T1, human CK1 delta (Homo sapiens, UniProt P48730); experiment: FRET fluorescence test, Z'Lyte kinase assay kit, CK1 delta; type: biochemical; details: peptide SER/THR 11 2 μM, ATP 4 times KM
T1 construct: purchased Invitrogen Corporation PV3665
Text: The capacity of the compounds of the invention to inhibit the phosphorylation of casein by the casein kinases 1 epsilon and delta may be evaluated using an FRET (Fluorescence Resonance Energy Transfer) fluorescence test with the aid of the “Z′Lyte™ kinase assay kit” (reference PV3670; Invitrogen Corporation™) according to the manufacturer's instructions.
The casein kinases 1 used are obtained from Invitrogen Corporation (human CK1 epsilon PV3500 and human CK1 delta PV3665).
A peptide substrate, labeled at both ends with a fluorophore-donating group (coumarin) and a fluorophore-accepting group (fluorescein) constituting an FRET system is […] in the presence of ATP by casein kinase 1 epsilon or delta in the presence of increasing concentrations of compounds of the invention.
The mixture is treated with a site-specific protease that specifically cleaves the substrate peptide to form two fluorescent fragments having a large fluorescence emission ratio.
The fluorescence observed is thus related to the capacity of the products of the invention to inhibit the phosphorylation of the substrate peptide by casein kinase 1 epsilon or casein kinase 1 delta.
The compounds of the invention are dissolved at different concentrations starting with a 10 mM stock solution in DMSO diluted in a buffer containing 50 mM HEPS, pH 7.5, 1 mM EGTA, 0.01% Brij-35, 10 mM MgCl2 for casein kinase 1 epsilon and supplemented with Trizma Base (50 mM), pH 8.0 and NaN3 (0.01% final) for casein kinase 1 delta.
The phosphorylation of the substrate peptide SER/THR 11 obtained from Invitrogen Corporation™ is performed at a final concentration of 2 μM. The ATP concentration is 4 times the KM, this value being 2 μM for casein kinase 1 epsilon and 4 μM for casein kinase 1 delta.
The emitted fluorescence is measured at wavelengths of 445 and 520 nm (excitation at 400 nm).

[2] = system: Mper1-luc Rat-1 (P2C4) fibroblasts; experiment: Circadian cell assay (mPer1-luciferase reporter, period prolongation); type: cell-based; details: effective concentration that induces a 1-hour prolongation of the circadian period
Procedure: Experimental Protocols for Circadian Cell Assay
Mper1-luc Rat-1 (P2C4) fibroblast cultures were prepared by dividing the cultures every 3-4 days (about 10-20% of confluence) on 150 cm^2 degassed polystyrene tissue culture flasks (Falcon® #35-5001) and maintained in growth medium [EMEM (Cellgro #10-010-CV); 10% fetal bovine serum (FBS; Gibco #16000-044); and 50 I.U./mL of penicillin-streptomycin (Cellgro #30-001-CI)] at 37° C. and under 5% CO2.
Cells obtained from Rat-1 fibroblast cultures at 30-50% of confluence as described above were co-transfected with vectors containing the selection marker for resistance to zeocin for a stable transfection and a luciferase reporter gene directed by the promoter mPer-1. After 24 to 48 hours, the cultures were divided on 96-well plates and maintained in growth medium supplemented with 50-100 μg/mL of zeocin (Invitrogen® #45-0430) for 10-14 days. The zeocin-resistant stable transfectants were evaluated for expression of the reporter by adding to the growth medium luciferin 100 μM (Promega® #E1603®) and by assaying the luciferase activity on a TopCount® scintillation counter (Packard model #C384V00). The Rat-1 cell clones expressing both zeocin resistance and luciferase activity directed by mPer1 were serum-shock synchronized with 50% horse serum [HS (Gibco® #16050-122)] and the activity of the circadian reporter was evaluated. The P2C4 clone of fibroblasts Mper1-luc Rat-1 was selected to test the compound.
The Mper1-luc Rat-1 (P2C4) fibroblasts at 40-50% of confluence obtained according to the protocol described above were plated out onto 96-well opaque tissue culture plates (Perkin Elmer® #6005680). The cultures are maintained in growth medium supplemented with 100 μg/mL of zeocin (Invitrogen #45-0430) until they reached 100% of confluence (48-72 hours). The cultures were then synchronized with 100 μL of synchronization medium [EMEM (Cellgro #10-010-CV); 100 I.U./mL of penicillin-streptomycin (Cellgro #30-001-C1); 50% HS (Gibco #16050-122)] for 2 hours at 37° C. and under 5% CO2. After synchronization, the cultures were rinsed with 100 μL of EMEM (Cellgro #10-010-CV) for 10 minutes at room temperature. After rinsing, the medium is replaced with 300 μL of CO2-independent medium [CO2I (Gibco #18045-088); L-glutamine 2 mM (Cellgro #25-005-C1); 100 U.I./mL of penicillin-streptomycin (Cellgro #30-001-C1); luciferin 100 μM (Promega #E 1603)]. […]
The two methods produced a virtually identical period estimation on a range of circadian periods. […] The data were analyzed by adjusting a hyperbolic curve to the data expressed as change of period (y-axis) as a function of the concentration of the test compound (x-axis) in the XLfit™ software and the CE Delta (t+1 h) was interpolated from this curve.

casein kinase 1 epsilon (CK1 epsilon), sequence (P49674 whole entry): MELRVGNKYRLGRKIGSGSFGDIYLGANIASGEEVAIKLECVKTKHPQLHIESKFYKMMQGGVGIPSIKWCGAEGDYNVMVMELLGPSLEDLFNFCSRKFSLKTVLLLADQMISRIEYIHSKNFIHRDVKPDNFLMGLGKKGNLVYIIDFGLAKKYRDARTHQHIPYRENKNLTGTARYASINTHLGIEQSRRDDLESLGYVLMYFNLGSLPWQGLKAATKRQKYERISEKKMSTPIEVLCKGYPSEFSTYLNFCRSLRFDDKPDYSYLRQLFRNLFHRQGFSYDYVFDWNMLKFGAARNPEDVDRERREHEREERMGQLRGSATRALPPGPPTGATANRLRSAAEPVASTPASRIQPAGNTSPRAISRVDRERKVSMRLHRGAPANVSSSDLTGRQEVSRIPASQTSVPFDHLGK
T1 sequence (P48730 whole entry): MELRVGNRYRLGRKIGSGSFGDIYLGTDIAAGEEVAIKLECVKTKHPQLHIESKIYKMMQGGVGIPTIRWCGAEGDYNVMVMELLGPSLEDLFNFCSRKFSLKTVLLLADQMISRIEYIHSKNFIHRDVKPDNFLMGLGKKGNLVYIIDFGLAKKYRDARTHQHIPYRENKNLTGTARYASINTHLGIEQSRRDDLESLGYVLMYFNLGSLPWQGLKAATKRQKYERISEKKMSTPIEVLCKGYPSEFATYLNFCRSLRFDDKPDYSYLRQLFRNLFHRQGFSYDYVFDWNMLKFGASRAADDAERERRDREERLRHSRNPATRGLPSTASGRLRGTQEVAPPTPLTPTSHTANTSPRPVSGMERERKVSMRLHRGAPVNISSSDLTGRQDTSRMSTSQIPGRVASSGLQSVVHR

| IC50 [1] | IC50 (human CK1 delta) | melting point | Compound | CE Delta (t + 1 h) [2] |
| --- | --- | --- | --- | --- |
| 3 nM | – | – | c1ccc(-c2nc3ccc(N4CCNCC4)nn3c2-c2ccncc2)cc1 [Compound 1, 2-Phenyl-6-piperazin-1-yl-3-pyrid-4-ylimidazo[1,2-b]pyridazine] | – |
| – | 5 nM | – | CN1CCN(c2ccc3nc(-c4ccc(F)cc4)c(-c4ccncc4)n3n2)CC1 [Compound 50, 2-(4-Fluorophenyl)-6-(4-methylpiperazin-1-yl)-3-pyrid-4-ylimidazo[1,2-b]pyridazine] | 28 nM |
| – | 59 to 110 nM | 236 to 239 °C | CC(C)N1CCN(c2ccc3nc(-c4ccc(Cl)cc4)c(-c4ccnc(N)c4)n3n2)CC1 [Compound 81, 4-[2-(4-Chlorophenyl)-6-(4-isopropylpiperazin-1-yl)imidazo[1,2-b]pyridazin-3-yl]pyrid-2-ylamine] | – |
| – | – | 204 to 206 °C | Fc1ccc(-c2nc3ccc(N4CC5CN(C6CC6)CC5C4)nn3c2-c2ccncc2)cc1 (stereo not shown) [Compound 115, 6-(5-Cyclopropylhexahydropyrrolo[3,4-c]pyrrol-2(1H)-yl)-2-(4-fluorophenyl)-3-pyrid-4-ylimidazo[1,2-b]pyridazine] | 2 nM |
| – | – | 193 to 195 °C | CN(C)C1CCN(c2ccc3nc(-c4ccc(F)cc4)c(-c4ccncc4)n3n2)CC1 [Compound 146, {1-[2-(4-Fluorophenyl)-3-pyrid-4-ylimidazo[1,2-b]pyridazin-6-yl]piperid-4-yl}dimethylamine] | 39 nM |
| 22 to 116 nM | 50 to 53 nM | – | c1ccc(-c2nc3ccc(N4CCC(N5CCCC5)CC4)nn3c2-c2ccncc2)cc1 [Compound 147, 2-Phenyl-3-pyrid-4-yl-6-(4-pyrrolidin-1-ylpiperid-1-yl)-imidazo[1,2-b]pyridazine] | – |

Continued, compound first:

| Compound | IC50 [1] | IC50 (human CK1 delta) | melting point | CE Delta (t + 1 h) [2] |
| --- | --- | --- | --- | --- |
| Cc1c(N2CCNCC2)nn2c(-c3ccncc3)c(-c3ccc(F)cc3)nc2c1C [Compound 3, 2-(4-Fluorophenyl)-7,8-dimethyl-6-piperazin-1-yl-3-pyrid-4-ylimidazo[1,2-b]pyridazine] | 1 nM | – | – | – |
| Cc1cc(C)cc(-c2nc3ccc(N4CCNC(C)(C)C4)nn3c2-c2ccnc(N)c2)c1 [Compound 30, 4-[2-(3,5-Dimethylphenyl)-6-(3,3-dimethylpiperazin-1-yl)imidazo[1,2-b]pyridazin-3-yl]pyrid-2-ylamine] | 60 nM | – | – | – |
| CC1(C)CN(c2ccc3nc(-c4cc(F)cc(F)c4)c(-c4ccncc4)n3n2)CCN1 [Compound 31, 2-(3,5-Difluorophenyl)-6-(3,3-dimethylpiperazin-1-yl)-3-pyrid-4-ylimidazo[1,2-b]pyridazine] | – | 91 to 93 nM | – | – |
| {4-[2-(4-Fluorophenyl)-6-((R)-3-methylpiperazin-1-yl)imidazo[1,2-b]pyridazin-3-yl]pyrid-2-yl}methylamine [Compound 153] | 8 nM | – | – | 2 to 9 nM |
